Laboratory results: publication PMC9421654, “Discovery of Substituted Di(pyridin-2-yl)-1,2,4-thiadiazol-5-amines as Novel Macrofilaricidal Compounds for the Treatment of Human Filarial Infections” (Journal of Medicinal Chemistry, 2022)
Converted amounts (≈) assume the structure as drawn. Where two headings read alike, the source gives them in different places.

Tests used:
[1] = test system: O. gutturosa adult male worms; test: O. gutturosa adult worm ex vivo assay, motility; format: cell-based, Onchocerca gutturosa; settings: Onchocerca gutturosa
Procedure: (§1) Activity against O. gutturosa adult male worms was determined using reported procedures.[7] The EC50 values were calculated using Microsoft Office Excel (2010) data analysis software. The tested compound is considered active when a motility reduction of ≥50% is observed by comparison to the untreated controls. O. gutturosa adult male worms were obtained postmortem from freshly slaughtered cattle. The worms were dissected from the nuchal ligament connective tissues of naturally infected cattle in Gambia, West Africa; the material was purchased from the International Trypanotolerance Centre, Banjul, from local butchers for use in this study. The adult worms were transferred individually to each well of a sterile 24-well (2 mL) plate (Thermo Fisher Scientific, UK) and maintained for at least 24 h in culture before use. The medium used was a minimum essential medium (MEM) with Earl’s salts and L-glutamine (Life Technologies Ltd., UK) supplemented with 10% heat inactivated newborn calf serum (Life Technologies Ltd., UK), 200 units/mL penicillin, 200 μg/mL streptomycin, and 0.5 μg/mL amphotericin B (Life Technologies Ltd., UK). Only normally active worms were used for the test, and all assays were conducted at 37 °C and 5% CO2. The positive control drug used was Immiticide (melarsomine dihydrochloride, Merial, USA). Known amounts of compounds were solubilized in 1 mL of DMSO. All stock solutions were allowed to stand at room temperature prior to use. The test items (four worms/drug concentration) were compared to untreated controls (six worms) and the positive control (two worms/drug concentration). Drug efficacy was assessed by the measurement of mean worm motility scores on a scale of 0 (immotile) to 10 (maximum) every 24 h, terminating at 120 h, using an Olympus inverted microscope. The results are reported as a percentage of the maximum score obtainable (100%) by calculating the motility index scores. The test drug is considered active when a motility reduction of ≥50% is observed by comparison to the untreated controls. […] In addition, biochemical evaluation of worm viability was assessed using MTT/formazan colorimetry. The MTT assay was carried out after the last motility reading (120 h). Single intact worms were placed in each well of a 48-well plate (Thermo Fisher Scientific, UK) containing 0.5 mL of 0.5 mg/mL MTT (Sigma, UK) in PBS solution and then incubated for 30 min at 37 °C. The worms were removed, blotted carefully, and individually transferred to separate wells of a 96-well microtiter plate, each containing 200 μL of DMSO to solubilize the formazan. After 1 h, the plate was gently agitated to disperse the color evenly and the absorbance value (optical density, OD) of the resulting formazan solution was determined at 490 nm using an absorbance microplate reader (Biotek ELx800, Thermo Fisher Scientific, UK). The results are expressed as the mean OD per drug concentration. Inhibition of formazan formation is correlated with worm damage or death.
Data S1. Onchocerca gutturosa adult male worms EC 50 Curves
Plotted using Graph Pad Prism 7.03, least square original fit, sigmoidal, 4PL
The measurement of mean worm motility every 24 h, terminating at 120 h, serial 1 in 4 drug dilutions to find
activity endpoint and produce EC50 values (geomean, n=2) for motility reduction. (4 worms per drug […]

[2] = test system: O. gutturosa adult male worms; test: O. gutturosa adult worm ex vivo assay, MTT/formazan viability; format: cell-based, Onchocerca gutturosa; settings: supplement, SD in brackets in the PDF table, read-out: O. gutturosa EC50 (uM) MTT viability inhibition
Procedure: as §1

[3] = Kinetic solubility measurement; format: physicochemical
Procedure: Kinetic Solubility Measurement: The standard kinetic solubility assay runs on […] concentration range using 10 mM DMSO stock solutions for plating. Single point calibration assay runs in duplicates. Concentration of standards: […] DMSO solutions prepared by diluting 10 mM stock, solution with DMSO. Concentration of samples: 200 µM, 4 µl 10 mM DMSO stock solution diluted with the appropriate buffer to […]. DMSO content:
2%. Buffers: pH=7.4 (0.1M Potassium phosphate buffer, diluted from Sigma 1M P3619-1GA to 0.1 M with MilliQ water), pH=2.2 (0.1M- NaCl pH adjusted with 0.1N HCL), pH=6.8 (0.1M - KH2PO4/K2HPO4), pH=5 (4 .04g of NaOH (Pellets), 8.65g of Glacial Acetic Acid, 11.874g of NaCl. In in 1 liter water. Adjusted to pH to 5 with either 1N NaOH or 1N HCl). The controls were plated from the standard 10 mM DMSO stock and run on the standard concentration (200µM) range of the assay. Incubation time: 24 hours shaking at […] in Millipore Multiscreen HTS filter plate for Aqueous Solubility Assay (MSSLBPC50), on room temperature.
After incubation time filtration with positive pressure manifold was performed. […]

[4] = LogD measurement (octanol-water); format: physicochemical
Procedure: LogD Measurement: Measurement of octanol-water distribution coefficient of samples using a […]
stock solutions for plating. Aqueous Phase: 100mM Buffer, pH=7.4 (0.1M Potassium phosphate buffer, diluted from Sigma 1M P3619-1GA to 0.1 M with MilliQ water), pH=2.2 (0.1M- NaCl pH adjusted with 0.1N HCL), pH=6.8 (0.1M - KH2PO4/K2HPO4), pH=5 (4 .04g of NaOH (Pellets), 8.65g of Glacial Acetic Acid, 11.874g of NaCl. In in 1 liter water. Adjusted to pH to 5 with either 1N NaOH or 1N HCl); Organic Phase: 1-Octanol (O021). Sample Concentration:
1000uM, […] 10 mM DMSO stock solution diluted in […] of organic Phase and […] of aqueous Phase. DMSO content: 10%. The controls were plated from the standard 10 mM DMSO stock and run on the standard concentration ([…]) range of the assay. Incubation time:
Sonication for 30 minutes followed by 24 hours shaking at 750 rpm in 96 deep well plate (VWR

[5] = Liver S9 metabolic stability assay, rat; format: in vitro ADME; settings: 3 μM, 60 min
Procedure: (§2) Liver S9 Metabolic Stability Assay: Incubations were performed at 37 °C in a Dubnoff Shaking water bath using 2 mL 96-well incubation plates. Rat and human S9 protein concentrations were 0.75 mg/ml and 1.2 mg/ml, respectively. The final concentrations of NADPH, UDPGA, and GSH were 1, 0.5, and 2.5 mM, and the final concentration of PAPS was 0.05 mg/ml. Substrate concentrations were 3µM, incubation time was 60 minutes, and all tests were done in triplicate. The incubation was conducted in 200 mM Tris buffer containing 2 mM magnesium chloride, pH=7.4 and the total incubation volume was 0.5 ml. Samples were analysed via LC-MS/MS and reported as percentage remaining after incubation for 60 minutes. […]

[6] = Liver S9 metabolic stability assay, human; format: in vitro ADME; settings: 3 μM, 60 min
Procedure: as §2

THLE-2 cells = test: THLE-2 cytotoxicity assay (ATP); settings: Homo sapiens, THLE-2, read-out: THLE IC50
Procedure: In vitro cytotoxicity of select compounds was tested in a “normal” proliferating transformed human liver epithelial (THLE-2) cell line.[35] Compounds were incubated in THLE-2 cells for 24 and 72 h, and adenosine triphosphate (ATP) levels were used as an indicator of cell viability.
THLE-2 Cytotoxicity Assay: THLE-2 cells (ATCC, catalog #CRL-2706) were plated in LHC-8 Media (Invitrogen, catalog #12679015) supplemented with fetal bovine serum (GE, catalog #SH30088.03), 70 ng/mL phosphoethanolamine (Sigma, catalog #P0503), 5 ng/mL EGF (Sigma, catalog #E9644), 1X penicillin/streptomycin (Gibco, catalog #15140148), and 1X glutamine (Invitrogen, catalog #25030024) in 384-well clear-bottom, black walled plates at a density of 3750 cells/well (15μL/well). After plating, cells were incubated overnight at 37°C in an incubator with 5% CO2 and 90% humidity. Compounds were first serially diluted in dimethyl sulfoxide then diluted in LHC-8 media growth media to 2X concentration. Cells were dosed with 15μL of each dose for final concentrations between 0.01 – 300 μM. Cells were incubated with compounds for 24 or 72 hours. Cytotoxicity was determined with Cell Titer Glo Luminescent ATP Assay (Promega, catalog #G7573) according to the manufacturer’s instructions. Tamoxifen (Sigma, catalog #BC9353476) was used as a positive control. levels at each dose were normalized to that of cells dosed with dimethyl sulfoxide vehicle alone and IC50 values were calculated from non-linear regression fits of dose-response curves plotted

[7] = target: T1, hERG potassium channels (KCNH2, expressed in HEK293 cells) (Homo sapiens, UniProt Q12809); test: hERG inhibition; format: cell-based; settings: supplement
T1 construct: expressed in transfected cells
T1 sequence (Q12809 whole entry): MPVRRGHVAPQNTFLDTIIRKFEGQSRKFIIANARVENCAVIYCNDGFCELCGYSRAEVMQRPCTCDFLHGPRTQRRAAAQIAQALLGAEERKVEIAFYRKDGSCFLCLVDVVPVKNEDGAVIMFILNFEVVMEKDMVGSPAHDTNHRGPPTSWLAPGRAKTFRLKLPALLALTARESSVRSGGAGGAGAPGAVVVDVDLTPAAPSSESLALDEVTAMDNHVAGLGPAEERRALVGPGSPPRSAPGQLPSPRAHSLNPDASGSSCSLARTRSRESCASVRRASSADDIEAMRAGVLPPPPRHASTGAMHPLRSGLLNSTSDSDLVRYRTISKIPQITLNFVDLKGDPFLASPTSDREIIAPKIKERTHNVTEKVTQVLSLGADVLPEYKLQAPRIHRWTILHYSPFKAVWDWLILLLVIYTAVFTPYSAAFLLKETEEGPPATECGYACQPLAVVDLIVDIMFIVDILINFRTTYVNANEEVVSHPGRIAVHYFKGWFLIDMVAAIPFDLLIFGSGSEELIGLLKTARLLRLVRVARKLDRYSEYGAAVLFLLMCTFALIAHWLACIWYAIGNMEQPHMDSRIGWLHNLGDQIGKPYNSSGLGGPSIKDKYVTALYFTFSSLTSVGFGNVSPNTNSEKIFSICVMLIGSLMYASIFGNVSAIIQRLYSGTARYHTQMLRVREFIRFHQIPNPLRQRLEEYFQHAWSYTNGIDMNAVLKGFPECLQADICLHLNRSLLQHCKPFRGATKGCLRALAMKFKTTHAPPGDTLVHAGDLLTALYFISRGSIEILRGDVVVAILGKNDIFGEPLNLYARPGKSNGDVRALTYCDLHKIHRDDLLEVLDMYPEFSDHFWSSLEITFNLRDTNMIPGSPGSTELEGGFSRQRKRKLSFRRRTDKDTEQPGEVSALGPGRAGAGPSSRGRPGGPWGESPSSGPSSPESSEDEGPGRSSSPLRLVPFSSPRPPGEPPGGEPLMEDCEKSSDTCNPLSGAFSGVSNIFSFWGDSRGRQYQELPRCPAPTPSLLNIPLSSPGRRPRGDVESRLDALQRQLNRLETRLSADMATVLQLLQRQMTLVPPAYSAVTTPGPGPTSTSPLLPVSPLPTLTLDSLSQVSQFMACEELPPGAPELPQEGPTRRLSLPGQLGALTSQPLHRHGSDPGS

[8] = read-out: O. gutturosa EC50 μM (SD), ex vivo adult worm motility reduction, SD in brackets
[9] = read-out: O. gutturosa EC50 (uM) motility inhibition, supplement, SD in brackets in the PDF table
[10] = supplement, read-out: measured logD

CC(C)Oc1ccc(-c2nsc(Nc3cc(C(F)(F)F)c(C(C)C)cn3)n2)nc1 [Compound 37]
EC50 [1, 8]: 0.05 µM
EC50 [1, 9]: 0.053 µM
EC50 ([2]; Onchocerca gutturosa): 0.3 µM
solubility kinetic at 24 h ([3]; 10 mM DMSO stock solutions): 1.00 µM (≈ 0.423 µg/mL)
logD at 24 h ([4]; pH 7.4, read-out: logD): 2.8
logD at 24 h [4, 10]: 2.8
Rat S9 metabolic stability [5]: 100 % remaining
Human S9 metabolic stability [6]: 100 % remaining

CC(C)Oc1cc(-c2nsc(Nc3ncccc3N(C)C)n2)ncc1C(F)(F)F [Compound 33]
EC50 [1, 8]: 0.85 µM
EC50 [1, 9]: 0.852 µM
EC50 ([2]; Onchocerca gutturosa): 0.83 µM
solubility kinetic at 24 h ([3]; 10 mM DMSO stock solutions): 1.43 µM (≈ 0.607 µg/mL)
logD at 24 h ([4]; pH 7.4, read-out: logD): 3
logD at 24 h [4, 10]: 3
Rat S9 metabolic stability [5]: 8 % remaining
Human S9 metabolic stability [6]: 100 % remaining

COc1cccnc1Nc1nc(-c2ccc(OC(C)C)cn2)ns1 [Compound 28, 3-(5-Isopropoxypyridin-2-yl)-N-(3-methoxypyridin-2-yl)-1,2,4-thiadiazol-5-amine]
EC50 [1, 8]: 0.08 µM
EC50 [1, 9]: 0.076 µM
EC50 ([2]; Onchocerca gutturosa): 0.62 µM
solubility kinetic at 24 h ([3]; 10 mM DMSO stock solutions): 7.25 µM (≈ 2.49 µg/mL)
logD at 24 h ([4]; pH 7.4, read-out: logD): 1.7
logD at 24 h [4, 10]: 1.7
Rat S9 metabolic stability [5]: 100 % remaining
Human S9 metabolic stability [6]: 100 % remaining
IC50 (THLE-2 cells): 7700 nM

Cc1cccnc1Nc1nc(-c2ccc(OC3CCOCC3)cn2)no1 [Compound 6, N-(3-Methylpyridin-2-yl)-3-(5-((tetrahydro-2H-pyran-4-yl)oxy)pyridin-2-yl)-1,2,4-oxadiazol-5-amine]
EC50 [1, 8]: 0.07 µM
EC50 [1, 9]: 0.072 µM
EC50 ([2]; Onchocerca gutturosa): 4.1 µM
EC50 [2]: 4.06 µM
solubility kinetic at 24 h ([3]; 10 mM DMSO stock solutions): 57.5 µM (≈ 20.3 µg/mL)
logD at 24 h [4, 10]: 1.7
Rat S9 metabolic stability [5]: 85 % remaining
Human S9 metabolic stability [6]: 98 % remaining

CC(C)c1cnc(Nc2nc(-c3ncccc3OC3CC3)ns2)cc1C(F)(F)F [Compound 38, 3-(3-Cyclopropoxypyridin-2-yl)-N-(5-isopropyl-4-(trifluoromethyl)pyridin-2-yl)-1,2,4-thiadiazol-5-amine]
EC50 [1, 8]: 0.02 µM
EC50 [1, 9]: 0.017 µM
EC50 ([2]; Onchocerca gutturosa): < 0.02 µM
EC50 [2]: < 0.015 µM
solubility kinetic at 24 h ([3]; 10 mM DMSO stock solutions): 1.03 µM (≈ 0.434 µg/mL)
logD at 24 h ([4]; pH 7.4, read-out: logD): 2.95
logD at 24 h [4, 10]: 2.95
Rat S9 metabolic stability [5]: 93 % remaining
Human S9 metabolic stability [6]: 100 % remaining

Cc1cccnc1Nc1nc(-c2cc(C#N)ccn2)ns1 [Compound 14]
EC50 [1, 8]: 3.1 µM
EC50 ([2]; Onchocerca gutturosa): 4.5 µM
solubility kinetic at 24 h ([3]; 10 mM DMSO stock solutions): 2.55 µM (≈ 0.751 µg/mL)
logD at 24 h ([4]; pH 7.4, read-out: logD): 2
logD at 24 h [4, 10]: 2
Rat S9 metabolic stability [5]: 78 % remaining
Human S9 metabolic stability [6]: 65 % remaining

Cc1cccnc1N(c1nc(-c2ccc(OC(C)C)cn2)ns1)C(C)C [Compound 43, 3-(5-Isopropoxypyridin-2-yl)-N-isopropyl-N-(3-methylpyridin-2-yl)-1,2,4-thiadiazol-5-amine]
EC50 [1, 8]: 3.3 µM
EC50 ([2]; Onchocerca gutturosa): 3.4 µM
solubility kinetic at 24 h ([3]; 10 mM DMSO stock solutions): 118 µM (≈ 43.6 µg/mL)
logD at 24 h ([4]; pH 7.4, read-out: logD): 3.1
logD at 24 h [4, 10]: 3.1
Rat S9 metabolic stability [5]: 60 % remaining
Human S9 metabolic stability [6]: 79 % remaining

CC(C)Oc1ccc(-c2nsc(N(C)c3ncccc3C(C)C)n2)nc1 [Compound 44, 3-(5-Isopropoxypyridin-2-yl)-N-(3-isopropylpyridin-2-yl)-N-methyl-1,2,4-thiadiazol-5-amine]
EC50 [1, 8]: 1.67 µM
EC50 ([2]; Onchocerca gutturosa): 1.4 µM
solubility kinetic at 24 h ([3]; 10 mM DMSO stock solutions): 121 µM (≈ 44.7 µg/mL)
logD at 24 h ([4]; pH 7.4, read-out: logD): 3
logD at 24 h [4, 10]: 3
Rat S9 metabolic stability [5]: 4 % remaining
Human S9 metabolic stability [6]: 32 % remaining

CC(=O)Nc1cccnc1Nc1nc(-c2ccc(OC(C)C)cn2)ns1 [Compound 46]
EC50 [1, 8]: 1.27 µM
EC50 ([2]; Onchocerca gutturosa): 1.37 µM
solubility kinetic at 24 h ([3]; 10 mM DMSO stock solutions): 29.4 µM (≈ 10.9 µg/mL)
solubility kinetic at 24 h ([3]; supplement): 29.5 µM (≈ 10.9 µg/mL)
logD at 24 h ([4]; pH 7.4, read-out: logD): 2.4
logD at 24 h [4, 10]: 2.4
IC50 [7]: > 30000 nM
